# Entries after “also recorded” stand apart in the source; their conditions may differ.
# Key:
# [1] = system: cultured LECs; experiment: Lymphatic valve gene expression in Yoda1-treated cultured LECs in the absence of OSS; format: cell-based, human
# Method: As Piezo1 was originally identified as a mechanically activated cation channel (21-25), we next asked whether another physical force, such as cell stretching, could stimulate Piezo1 and induce the molecular signature of lymphatic valves. To address this question, primary LECs were subjected to cyclic cell stretching (112%, 12 Hz) for 4, 8, and 24 hours in the absence of OSS, and the expression of the lymphatic valve genes were investigated. […] In addition, we investigated whether chemical activation of Piezo1 promotes lymphatic valve formation in animals. Prox1-EGFP mice were perinatally administrated at E18.5 and P0 with a chemical agonist of Piezo1, Yoda1 (30), and lymphatic valve formation in the small intestine, colon, and skin was evaluated at P1. […] We then asked whether Yoda1 could activate cultured LECs to upregulate lymphatic valve genes in the absence of OSS.
# [2] = molecular target: T1, Piezo1 (Mus musculus, UniProt E2JF22); experiment: Lymphatic valve formation in Prox1-EGFP mice after perinatal Yoda1 administration; format: in vivo; conditions: Yoda1 70 μg/kg intraperitoneal at E18.5 and P0, evaluated at P1, mesenteries of the jejunum and the colon, tail skin
# T1 construct: from tissue; host or cells: Prox1-EGFP mice (pregnant females at E18.5 and pups at P0); lymphatic vessels of mesentery (jejunum, colon) and tail skin
# T1 sequence (E2JF22 whole entry): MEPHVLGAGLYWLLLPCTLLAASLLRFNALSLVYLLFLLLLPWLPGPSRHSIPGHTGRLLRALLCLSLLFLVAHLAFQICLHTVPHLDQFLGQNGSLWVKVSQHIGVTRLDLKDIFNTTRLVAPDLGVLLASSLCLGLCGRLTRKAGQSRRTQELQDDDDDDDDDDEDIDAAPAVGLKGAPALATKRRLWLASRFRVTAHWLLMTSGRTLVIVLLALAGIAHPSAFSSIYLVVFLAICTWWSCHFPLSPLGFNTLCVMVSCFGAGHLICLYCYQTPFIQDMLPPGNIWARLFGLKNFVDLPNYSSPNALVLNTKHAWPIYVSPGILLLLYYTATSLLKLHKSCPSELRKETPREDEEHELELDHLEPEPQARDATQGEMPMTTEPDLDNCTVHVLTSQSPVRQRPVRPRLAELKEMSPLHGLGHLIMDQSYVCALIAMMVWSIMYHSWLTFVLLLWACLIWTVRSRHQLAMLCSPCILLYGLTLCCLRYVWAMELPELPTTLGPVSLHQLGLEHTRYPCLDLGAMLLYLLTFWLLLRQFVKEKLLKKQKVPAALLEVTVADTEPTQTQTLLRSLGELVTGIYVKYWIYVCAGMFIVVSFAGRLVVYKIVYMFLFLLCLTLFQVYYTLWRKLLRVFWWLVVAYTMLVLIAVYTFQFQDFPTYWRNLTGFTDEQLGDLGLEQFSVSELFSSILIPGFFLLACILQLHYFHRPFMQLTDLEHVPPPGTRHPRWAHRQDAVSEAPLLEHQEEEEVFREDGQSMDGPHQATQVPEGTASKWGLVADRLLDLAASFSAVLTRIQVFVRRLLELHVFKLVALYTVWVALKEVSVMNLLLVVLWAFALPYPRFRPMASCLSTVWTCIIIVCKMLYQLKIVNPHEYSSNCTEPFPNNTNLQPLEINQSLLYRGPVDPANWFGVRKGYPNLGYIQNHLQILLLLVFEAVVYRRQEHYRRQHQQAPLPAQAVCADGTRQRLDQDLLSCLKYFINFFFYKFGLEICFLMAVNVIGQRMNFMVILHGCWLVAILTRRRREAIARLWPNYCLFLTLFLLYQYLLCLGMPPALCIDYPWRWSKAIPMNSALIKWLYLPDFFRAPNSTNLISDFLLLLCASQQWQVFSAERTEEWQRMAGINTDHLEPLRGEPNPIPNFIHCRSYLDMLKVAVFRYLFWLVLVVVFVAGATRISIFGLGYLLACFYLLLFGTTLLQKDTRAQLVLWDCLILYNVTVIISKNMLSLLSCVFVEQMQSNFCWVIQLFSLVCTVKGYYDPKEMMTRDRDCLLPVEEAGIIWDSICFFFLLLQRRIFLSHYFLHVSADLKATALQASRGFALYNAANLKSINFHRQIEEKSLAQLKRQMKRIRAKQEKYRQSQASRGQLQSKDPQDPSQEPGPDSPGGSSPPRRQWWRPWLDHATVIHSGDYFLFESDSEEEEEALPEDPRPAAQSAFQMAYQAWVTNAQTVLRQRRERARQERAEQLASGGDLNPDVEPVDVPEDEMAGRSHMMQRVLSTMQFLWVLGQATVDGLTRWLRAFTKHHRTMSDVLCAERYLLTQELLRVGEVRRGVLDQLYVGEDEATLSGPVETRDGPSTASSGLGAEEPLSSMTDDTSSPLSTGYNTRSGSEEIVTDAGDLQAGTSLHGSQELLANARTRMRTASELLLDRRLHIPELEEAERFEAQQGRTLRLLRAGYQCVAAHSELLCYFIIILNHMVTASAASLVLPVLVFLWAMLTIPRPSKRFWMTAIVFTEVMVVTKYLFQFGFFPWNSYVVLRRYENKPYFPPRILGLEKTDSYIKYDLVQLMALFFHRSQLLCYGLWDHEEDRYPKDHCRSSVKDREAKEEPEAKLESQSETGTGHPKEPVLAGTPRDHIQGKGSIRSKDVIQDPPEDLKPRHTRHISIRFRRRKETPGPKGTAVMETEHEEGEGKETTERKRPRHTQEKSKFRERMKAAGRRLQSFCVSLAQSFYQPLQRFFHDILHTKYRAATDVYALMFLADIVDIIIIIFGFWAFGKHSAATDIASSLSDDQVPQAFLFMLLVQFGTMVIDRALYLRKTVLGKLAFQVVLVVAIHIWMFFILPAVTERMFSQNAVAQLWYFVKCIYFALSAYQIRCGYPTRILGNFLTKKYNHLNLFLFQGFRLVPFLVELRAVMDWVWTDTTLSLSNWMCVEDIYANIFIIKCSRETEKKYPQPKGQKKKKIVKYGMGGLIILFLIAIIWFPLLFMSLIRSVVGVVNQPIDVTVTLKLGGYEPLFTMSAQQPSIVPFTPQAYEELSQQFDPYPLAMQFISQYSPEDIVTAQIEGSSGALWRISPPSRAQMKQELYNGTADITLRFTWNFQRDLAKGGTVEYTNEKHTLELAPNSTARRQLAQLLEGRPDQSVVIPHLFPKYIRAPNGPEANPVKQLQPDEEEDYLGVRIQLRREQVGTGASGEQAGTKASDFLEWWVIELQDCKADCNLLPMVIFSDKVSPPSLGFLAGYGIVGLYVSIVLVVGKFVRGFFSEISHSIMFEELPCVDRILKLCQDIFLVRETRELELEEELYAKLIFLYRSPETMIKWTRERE
# Excerpt: All mouse works have been approved by the Institutional Animal Care and Use Committee, University of Southern California (PI: YK Hong). Sources of the mice are: Prox1-EGFP (Tg(Prox1-EGFP)KY221Gsat, Mutant Mouse Resource and Research Centers) (35), Prox1-tdTomato (Tg(Prox1-tdTomato)TA76Gsat/Mmucd, Mutant Mouse Resource and Research Centers) (28), Prox1-CreER^T2 (a kind gift from Dr. Taija Makinen, Uppsala University, Sweden) (17), Piezo1^fl/fl (Piezo1^tm2.1Apat/J. Jackson Laboratory) (29). Mice were maintained in mixed outbred backgrounds. […]
# Pregnant Prox1-EGFP females at E18.5 were intraperitoneal injected with vehicle or Yoda1 (70 μg/kg). […] Equivalent anatomic locations were selected for capturing images in the vehicle and Yoda1-treated groups, and their lymphatic valve formation was investigated and quantified (Supplemental FIG. 5).
# As Piezo1 was originally identified as a mechanically activated cation channel (21-25), we next asked whether another physical force, such as cell stretching, could stimulate Piezo1 and induce the molecular signature of lymphatic valves. […] Prox1-EGFP mice were perinatally administrated at E18.5 and P0 with a chemical agonist of Piezo1, Yoda1 (30), and lymphatic valve formation in the small intestine, colon, and skin was evaluated at P1. […]
compound,measurement,setting,value
"Clc1cccc(Cl)c1CSc1nnc(-c2cnccn2)s1 [Yoda1, 2-[(2,6-dichlorophenyl)methylsulfanyl]-5-pyrazin-2-yl-1,3,4-thiadiazole]",FOXC2 expression,[1],rather downregulated
same,CX37 expression,[1]; Piezo1-dependent,upregulates
same,GATA2 expression,[1]; Piezo1-dependent,upregulates
same,ITGA9 expression,[1]; Piezo1-dependent,upregulates
same,LAMA5 expression,[1]; Piezo1-dependent,upregulates
same,lymphatic valve formation,[2],significantly expedited; also recorded: accelerated lymphatic valve formation
